Data on four molecules can be found in patent US9707201B2 (Leptrex Ltd, priority 2013, dated 2017).

“Also recorded” adds a separate entry of the source.

Data set [1] can be described thus: Thiosulfinate half-life in aqueous ethanol garlic extract solutions by quantitative reverse phase HPLC. Format: physicochemical. The note with it: buffer, initial allicin 400 ppm, mean (SD), n=3. Here is the method: The solutions were prepared from a single stock aqueous garlic extract solution that was diluted with the appropriate volume of ethanol to produce the 25%, 50% and 75% ethanol garlic aqueous extract solutions. The aqueous stock solution of garlic extract assayed by HPLC was determined to have an allicin content of 1600 ppm (1600 mg allicin in 1000 ml water) and each of the 25%, 50% and 75% ethanol:aqueous dilutions prepared from the aqueous garlic extract stock solution were prepared to provide an initial allicin concentration of 400 ppm.
The decomposition profiles of MeS(O)SAll and AllS(O)SMe (the MA-AM mixture collectively referred to as Analogue-1), AllS(O)SAll (Allicin, Analogue-2) and AllS(O)SPn-(E,Z) (Analogue-3) thiosulfinates were then determined by quantitative reverse phase HPLC. The quantitative HPLC procedure involved determining the relative concentrations of each thiosulfinate in the various solutions at the various ageing temperatures as a function of the time that each solution was stored at a carefully controlled temperature. The initial measurement of the concentration value for each thiosulfinate determined immediately after freshly prepared solutions were prepared provides the 100% thiosulfinate concentration value for the start time (time zero) at which the time-lapse thermal decomposition measurements started to commence.
The quantitative HPLC data recorded for the MA-AM mixture (Analogue-1), allicin (Analogue-2) and AllS(O)SPn-(E,Z) (Analogue-3) established that each thiosulfinate was subject to a first-order exponential decay process when the 25%, 50% and 75% aqueous:ethanol garlic extract solutions were stored (aged) through the temperature range 40-20° C. FIGS. 2-4 show exponential decay profiles obtained for MA-AM (Analogue-1), allicin (Analogue-2) and AllS(O)SPn-(E,Z) (Analogue-3)—FIGS. 2-4 produced from data obtained from the HPLC analyses of the same single sample whose solvent composition was ethanol:water (25:75% by volume) with an initial allicin concentration of 400 ppm. The decay profiles were obtained using ORIGIN version 6.1 software (Origin is a registered trade mark of OriginLab Corporation) software that determined the best fit for decomposition profiles as being first-order exponential decay. From the decomposition profiles shown in FIGS. 2-4 it is possible to interpolate to determine the time required for each thiosulfinate to decompose to 50% of its initial concentration level that had been initially measured at the outset when controlled temperature storage started.

Data set [2] in a line: Thiosulfinate half-life in 100% aqueous garlic extract solution by quantitative HPLC. It counts as physicochemical. As to conditions: buffer, 100% aqueous solution, mean (SD), n=3, read-out: Half-Life (hours) at 20° C.
The format of data set [3] is physicochemical. The note with it: buffer. On the procedure:
1. Aqueous solutions were prepared using 70 ml water and 6 g McCormick garlic powder, along with methiin or alliin in the proportions shown in table 37 below. The liquid in the top row was prepared from a blend of the following liquids:
2. All solutions were prepared at a temperature of 21° C. with the garlic powder reaction mixture being stirred for 3 hours. At the end of the 3 hour stirred reaction period, the solutions were filtered and immediately assayed by HPLC for their respective A-1, A-2 and A-4 content. These initial concentration values were considered as Time Zero values. 3. After Time Zero thiosulfinate concentrations had been obtained, the solutions were stored at stable temperatures within accurate temperature regulated ovens. 4. Samples of each temperature stored aqueous solution were withdrawn at appropriate time intervals and assayed by HPLC for A-1, A-2 and A-4 content. The decay of the blended liquid can be seen in FIGS. 64, 65 and 66. […] 5. The decomposition profile graphs for MMTSO, MA-AM and Allicin are shown in FIGS. 67, 68 and 69 respectively. These figures were constructed by expressing their respective HPLC peak area integration values measured at 240 nm as a function of sample storage time to obtain Relative % Concentration values. In all cases the best fit was obtained with MicroCal Origin s/w using a first order exponential decay fit. In FIG. 67, the half-life value was obtained by interpolating the time at which the A-4 (MMTSO) peak provides ½ integral value of that initially obtained for A-4 peak at Time Zero. Half-life for A-4 at 55° C. was determined as 51.1 hrs. Similarly in FIG. 68, the half-life value was obtained by interpolating the time at which A-1 (MA-AM) peak provides ½ integral value of that initially obtained for A-1 peak at Time Zero. Half-life for A-1 was determined as 30.2 hrs. Once again, the half-life value was obtained by interpolating the time at which A-2 (Allicin) peak provides ½ integral value of that initially obtained for A-2 peak at Time Zero. Half-life for A-2 is determined as 9.4 hrs.

Data set [4] concerns MRSA clinical isolate QMUL301. The data set can be described thus: Standard agar diffusion test, zones of inhibition. It counts as cell-based, methicillin-resistant Staphylococcus aureus. As to conditions: for Activity of the solution after storage: aqueous solution stored at 17° C. for 56 days. Here is the method: The activity of powders and liquids was determined using standard agar diffusion tests. Susceptibility of isolates by measuring the zones of inhibition around a measured amount of the anti-microbial agent.
Bacteria: MRSA clinical isolate QMUL301 was used. Overnight broth cultures in isosensitest broth were prepared. These were diluted to give a final concentration of 10^5 cfu/ml
Media: Isosensitest agar (Oxoid Ltd).
• A broth containing 10^5 cfu/ml was prepared in peptone water. • 0.2 ml was spread over each isosensitest plate. • Plates were air dried and a 6 mm well cut in the centre of the plate. • A volume of 100 ul of liquid or 100 ug of solid was added to each well. • Plates were incubated overnight at 37° C. • The presence of zones of inhibition around a well is indicative of biological activity being present. No zone around the 6 mm well, (as with the negative control) represented no biological activity.
On the technique in general: Agar diffusion results depend on both activity and mobility in agar.

The nature of data set [5]: Ageing of aqueous FG + P-1 reaction solution at 40° C., thiosulfinate content by HPLC. It counts as physicochemical. The note with it: for A4 Peak Integration Value × 10^−4: 240 nm. Here is the method:
Similar studies were conducted with an aqueous solution of analogue 4 (MMTSO) produced by the method of process 6a, as set out in row 4 of table 23.
1. The reaction mixture (12.0 g FG+400 mg P-1+70 ml H2O) was filtered immediately after 4 hour reaction time and served as the stock solution for this study.
2. The filtered solution was divided into 2 portions. One to be stored frozen and the other to be stored at 40° C.
3. The portion of filtered solution to be used to determine the half-life of A4 was placed in a sealed glass bottle that was placed in an oven that provided a stable temperature of 40° C.
4. At irregular intervals a sample of the aqueous solution was withdrawn and analysed by HPLC.
FIGS. 57-60 show the chromatogram obtained after 0, 120, 168 and 672 hours respectively. Their concentrations are set out below in table 32: […]

In data set [6] the test system is Helicobacter pylori. The note with it: Canizares et al. 2004; cited from earlier work.
For data set [7], the system named is herpes simplex virus types 1 and 2, parainfluenza virus type 3 and rhinovirus type 2. The note with it: in vitro, compounds present in garlic extracts; cited from earlier work.
The mark [8] stands for this setting: aqueous solution, 0 hours aged at 40° C.
Where [9] appears, read: aqueous solution, 120 hours aged at 40° C.
[10] abbreviates: aqueous solution, 168 hours aged at 40° C.
The mark [11] stands for this setting: aqueous solution, 672 hours aged at 40° C.
Where [12] appears, read: aqueous solution (12.0 g FG + 400 mg P-1 + 70 ml H2O), 0 hours aged at 40° C.

Regarding `C=CC[S+]([O-])SC=CC` (stereo not shown), the half-life in data set [1] (25% EtOH, 20° C.) is 134 h; in data set [1] (25% EtOH, 25° C.) it was 66.1 h; in data set [1] (25% EtOH, 30° C.) it was 39.5 h; in data set [1] (25% EtOH, 35° C.), 25 h; in data set [1] (25% EtOH, 40° C.), 15.3 h; in data set [1] (50% EtOH, 20° C.), 203 h. Besides, the half-life worked out at 121 h in data set [1] (50% EtOH, 25° C.); 65.6 h in data set [1] (50% EtOH, 30° C.); 28.8 h in data set [1] (50% EtOH, 35° C.); 17.3 h in data set [1] (50% EtOH, 40° C.); 161 h in data set [1] (75% EtOH, 20° C.); 73.4 h in data set [1] (75% EtOH, 25° C.). In addition, the half-life in data set [1] (75% EtOH, 30° C.) came out at 46.9 h; in data set [1] (75% EtOH, 35° C.), 30.3 h; in data set [1] (75% EtOH, 40° C.), 17.6 h; in data set [2] (initial allicin (A-2) concentration 375 ppm), 140 h; in data set [2] (initial allicin (A-2) concentration 1500 ppm), 77.2 h.
On to `CS[S+](C)[O-]` (stereo not shown) [Analogue A-4, methyl methyl-thiosulfinate], for which the Half-Life hrs in data set [3] stood at 51.1 h. Further, in data set [4], the “Activity of the solution after storage” value is listed as “remains active”. In data set [4] (aqueous solutions), the “Antimicrobial activity against MRSA” value was “significant antimicrobial activity; also recorded: at least the same level of antimicrobial activity against MRSA as A-2”. Further, in data set [5] (aqueous solution (Red Spot), stored at 40° C. for 672 hours), the A-4 ppm was 1597 ppm. The “A4 concentration converted from peak integration value” in data set [5] (setting [8]) was “(=2410 ppm)”. Besides, the “A4 Peak Integration Value × 10^−4” value in data set [5] (setting [8]) is recorded as 1153; in data set [5] (setting [9]), 1074; in data set [5] (setting [10]) it was 1004; in data set [5] (setting [11]), “(743)”; in data set [5] (aqueous solution, 672 hours aged at 40° C., listed as A4), 764.
Molecule “allyl allyl-thiosulfinate [Analogue A-2, reference compound]” returned a Half-Life hrs in data set [3] of 9.4 h. In addition, the “Activity of the solution after storage” value in data set [4] is recorded as “lost all measurable activity”. For the same molecule, the “Inhibition of the in vitro growth of Helicobacter pylori” value in data set [6] was “show inhibition”. Moreover, the Virucidal activity entry in data set [7] is reported as “possess virucidal activity”. Also, the “concentration (ppm)” value in data set [5] (setting [12]) came to 47 ppm.
“methyl allyl-thiosulfinate (MA) and its structural isomer allyl methyl-thiosulfinate (AM) [Analogue A-1]” registered a Half-Life hrs in data set [3] of 30.2 h. Also, the “concentration (ppm)” value in data set [5] (setting [12]) came to 843 ppm; in data set [5] (setting [9]) it was 415 ppm; in data set [5] (setting [10]) it was 314 ppm; in data set [5] (setting [11]), 35 ppm.

One may read the half-life as the time needed for the level to fall by half in the phase considered.
